Data from the supplement of paper PMC10307832.

Tests used:
XMD8-85 = compound: CN1CCN(CC1)C2=CC(=C(C=C2)NC3=NC=C4C(=N3)N(C5=CC=CC=C5C(=O)N4C)C)OC [XMD8-85]; assay: relative viability (nuclei count vs DMSO), 5 days (fraction); higher = more cells survive
In short: (§1)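 Lung cancer cell lines in 1536-well plates were kept overnight at 37 °C, then pinned with five library-drug doses (not always all listed) spaced by √10 on vehicle-anchored plates. After 5 days without medium change, cells were fixed, permeabilised and Hoechst-stained in one step, imaged at 4×, and nuclei were counted with MetaXpress. Viability is treated-well nuclei divided by vehicle-well nuclei, taken as the median over plates. Plates passed only with control CV below 25% and at least one doubling.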

4EGI-1 = compound: O=C(O)C(Cc1ccccc1[N+](=O)[O-])=NNc1nc(-c2ccc(Cl)c(Cl)c2)cs1 (mixture of isomers) [4EGI-1]; assay: as above
In short: as §1

| Cell Line | relative viability (XMD8-85; 0.08 µM) | relative viability (XMD8-85; 0.253 µM) | relative viability (XMD8-85; 0.8 µM) | relative viability (XMD8-85; 2.53 µM) | relative viability (XMD8-85; 8 µM) | relative viability (4EGI-1; 0.5 µM) | relative viability (4EGI-1; 1.581 µM) | relative viability (4EGI-1; 5 µM) | relative viability (4EGI-1; 15.81 µM) | relative viability (4EGI-1; 50 µM) |
| --- | --- | --- | --- | --- | --- | --- | --- | --- | --- | --- |
| LXF-289 | 0.996 | 1.05 | 0.997 | 1.06 | 0.979 | 1.03 | 1.01 | 0.98 | 0.864 | 0.573 |
| NCI-H1299 | 1.06 | 1.03 | 1.01 | 0.98 | 0.81 | 1.02 | 1.01 | 1.01 | 1.03 | 0.828 |
| NCI-H1563 | 1.06 | 0.925 | 0.904 | 0.951 | 0.88 | 1.1 | 0.875 | 0.976 | 0.893 | 0.625 |
| NCI-H1648 | 0.827 | 0.73 | 0.7 | 0.829 | 0.869 | 0.831 | 0.958 | 0.968 | 0.808 | 0.509 |
| NCI-H1944 | 0.873 | 0.993 | 1.02 | 1.22 | 0.973 | 1.03 |  | 0.996 | 0.738 | 0.574 |
| CAL-12T | 0.936 | 1.06 | 0.871 | 0.908 | 0.654 | 1.03 |  | 0.963 | 0.878 | 0.518 |
| NCI-H23 | 0.917 | 0.95 | 0.982 | 1 | 0.72 | 1.1 |  | 1.06 | 1.03 | 0.298 |
| LK-2 | 0.97 | 1.08 | 0.928 | 0.67 | 0.616 | 1.11 |  | 1.29 | 1.08 | 0.854 |
| NCI-H358 | 0.881 | 0.914 | 0.977 | 0.984 | 0.691 | 1.01 | 0.767 | 0.998 | 0.629 | 0.16 |
| NCI-H647 | 0.991 | 0.912 | 1.01 | 1.06 | 0.758 | 1.01 |  | 1.1 | 0.855 | 0.446 |
| COR-L 105 | 0.913 | 0.861 | 0.836 | 0.853 | 0.411 | 0.91 | 0.879 | 0.986 | 0.644 | 0.648 |
| A-427 | 1.04 | 1 | 1.07 | 1.12 | 0.74 | 1.05 | 0.762 | 1 | 0.86 | 0.254 |
| NCI-H1734 | 0.946 | 0.988 | 1.11 | 1.08 | 0.758 | 1.06 | 0.949 | 1.14 | 0.831 | 0.353 |
| PC-3 [JPC-3] | 1.06 | 1.03 | 0.993 | 1.11 | 0.942 | 1.01 | 0.991 | 1 |  | 0.691 |
| LCLC-97TM1 | 0.915 | 0.991 | 1.24 | 1.09 | 1.05 | 1.01 |  | 1.19 | 0.963 | 0.632 |
| ChaGo-K-1 | 0.953 | 0.969 | 0.917 | 1.06 | 0.959 | 0.976 | 0.762 | 1.03 | 0.861 | 0.616 |
| Calu-6 | 1.02 | 0.962 | 1.08 | 0.96 | 0.834 | 1.03 | 0.887 | 1.1 | 0.951 | 0.618 |
| IA-LM | 0.84 | 0.923 | 0.872 | 0.723 | 0.489 | 1.03 | 0.848 | 0.923 | 0.152 | 0.0847 |
| HCC-366 | 1.03 | 1.03 | 1.07 | 1 | 0.938 | 1.02 | 0.816 | 1.02 | 0.983 | 0.411 |
| EBC-1 | 0.944 | 1.06 | 0.937 | 0.816 | 0.386 | 1.11 | 1.05 | 1.11 | 0.726 | 0.296 |
| COR-L23 | 1.11 | 1.07 | 1.06 | 1.12 | 0.886 | 1.08 | 0.859 | 1.11 | 0.771 | 0.155 |
| NCI-H1395 | 0.893 | 0.884 | 0.889 | 1.01 | 0.561 | 1.02 |  | 1.2 | 0.929 | 0.614 |
| LOU-NH91 | 0.993 | 0.97 | 0.939 | 1.09 | 0.734 | 1.02 |  | 1 | 0.764 | 0.751 |
| NCI-H441 | 1.09 | 0.92 | 1.2 | 1.29 | 0.801 | 1.22 | 0.868 | 1.13 | 0.791 | 0.307 |
| NCI-H2405 | 1.02 | 1.06 | 1.06 | 1.01 | 0.781 | 1.04 | 0.819 | 1.08 | 1.03 | 0.984 |
| SK-LU-1 | 0.921 | 1.07 | 1.08 | 1.06 | 0.96 | 1.12 | 1.11 | 1.14 | 0.998 | 0.58 |

| Cell Line | relative viability (XMD8-85; 0.08 µM) | relative viability (XMD8-85; 0.253 µM) | relative viability (XMD8-85; 0.8 µM) | relative viability (XMD8-85; 2.53 µM) | relative viability (XMD8-85; 8 µM) | relative viability (4EGI-1; 0.5 µM) | relative viability (4EGI-1; 1.581 µM) | relative viability (4EGI-1; 5 µM) | relative viability (4EGI-1; 15.81 µM) | relative viability (4EGI-1; 50 µM) |
| --- | --- | --- | --- | --- | --- | --- | --- | --- | --- | --- |
| NCI-H838 | 0.951 | 1.02 | 0.997 | 0.937 | 0.754 | 1.03 |  | 1.02 | 0.912 | 0.342 |
| HCC-15 | 1.01 | 1.02 | 1.08 | 1.06 | 0.849 | 0.982 | 1.02 | 1.02 | 0.947 | 0.583 |
| EPLC-272H | 0.937 | 1.07 | 0.885 | 0.876 | 0.608 | 1.07 | 0.659 | 1.12 | 0.713 | 0.235 |
| NCI-H1755 | 1.02 | 1.08 | 0.96 | 1.02 | 1.03 | 1.04 | 1.04 | 0.957 | 0.896 | 0.622 |
| EMC-BAC-2 | 1.04 | 1.03 | 0.956 | 1.01 | 0.778 | 1.07 |  | 1.07 | 0.976 | 0.538 |
| 201T | 1 | 0.983 | 0.986 | 0.978 | 0.757 | 1.05 | 0.955 | 1.05 | 0.965 | 0.806 |
| HARA | 0.95 | 0.976 | 0.902 | 1.03 | 0.611 | 1.07 | 1 | 1.07 | 0.765 | 0.257 |
| A549 | 0.954 | 1 | 1.05 | 1.05 | 0.995 | 1.03 | 0.792 | 0.977 | 0.929 | 0.369 |
| LC-2-ad | 1.02 | 0.987 | 1.03 | 0.925 | 0.498 | 1.06 | 0.716 | 0.969 | 0.526 | 0.248 |
| NCI-H661 | 1 | 1.01 | 0.963 | 1.05 | 0.903 | 0.975 | 0.911 | 0.974 | 0.583 | 0.467 |
| NCI-H2087 | 1.07 | 0.984 | 1.09 | 1.05 | 0.811 | 1.24 | 1.05 | 0.975 | 0.694 | 0.256 |
| EKVX | 0.966 | 1.05 | 1.02 | 1.19 | 0.863 | 1.05 | 0.746 | 1.04 | 0.698 | 0.859 |
| NCI-H650 | 0.989 | 1.01 | 0.948 | 0.841 | 0.556 | 1.12 |  | 1.03 | 0.959 | 0.753 |
| NCI-H1355 | 0.995 | 0.941 | 1.01 | 1.13 | 0.749 | 1.04 | 0.93 | 0.948 | 0.862 | 0.566 |
| HOP-62 | 1.08 | 1.06 | 0.952 | 1.01 |  | 1.02 |  | 1.02 | 0.999 | 0.744 |
| BEN | 1.03 | 0.956 | 0.901 | 0.7 | 0.523 | 1.15 | 1.07 | 1.06 | 0.98 | 0.728 |
| NCI-H2023 | 0.837 | 1.02 | 0.99 | 1 | 0.559 | 1.27 |  | 1.1 | 0.376 | 0.129 |
| NCI-H1651 | 1.06 | 0.983 | 0.978 | 0.959 | 0.926 | 1.03 | 0.906 | 1.01 | 0.95 | 0.753 |
| ABC-1 | 0.879 | 0.87 | 1.17 | 0.952 | 0.517 | 1.08 | 0.819 | 1.1 | 0.525 | 0.195 |
| NCI-H1666 | 0.965 | 0.963 | 0.919 | 0.971 | 0.998 | 1.05 | 0.942 | 1.09 | 0.781 | 0.436 |
| LCLC-103H | 0.929 | 1.03 | 1.05 | 1.04 | 0.88 | 1.01 | 0.929 | 1.01 | 0.972 | 0.696 |
| LU99A | 0.895 | 1 | 1 | 0.973 | 0.831 | 0.989 | 0.859 | 0.999 | 0.885 | 0.564 |
| NCI-H322M | 0.906 | 0.937 | 0.939 | 0.97 | 0.621 | 0.94 |  | 1.05 | 0.75 | 0.5 |
| NCI-H1703 | 0.934 | 1.06 | 1.06 | 0.967 | 0.822 | 1.34 | 1.08 | 1.12 | 0.928 | 0.571 |
| NCI-H522 | 0.94 | 1.11 | 0.947 | 1.09 | 0.677 | 1.01 | 0.878 | 0.99 | 0.922 | 0.69 |
